Data as given in PMC9851200, “Multiparameter phenotypic screening for endogenous TFEB and TFE3 translocation identifies novel chemical series modulating lysosome function” (Autophagy, 2022).

Experiments:
MINK1/MINK = MINK1/MINK (Homo sapiens, UniProt Q8N4C8); type: binding
MAPK10/JNK3 = MAPK10/JNK3 (Homo sapiens, UniProt P53779); type: binding
STK10/LOK = STK10/LOK (Homo sapiens, UniProt O94804); type: binding
CLEAR genes = assay: RT-qPCR of CLEAR gene expression; type: cell-based; details: SH-SY5Y, 1 µM compound, 48 h
Experimental: We assessed autophagic flux by quantifying LC3-II levels using western blotting in compound-treated cells in the presence or absence of the lysosomal inhibitor bafilomycin A1. […] Given the lack of correlation between the ability of the compounds to upregulate CLEAR genes, and changes in LC3-II levels, the action of the compounds was therefore independent of autophagic flux. SH-SY5Y cells were treated with compounds in 12-well or 24-well plates (Corning Costar, […]). Cell pellets were harvested and RNA was extracted using the RNeasy Mini Kit (QIAGEN, 74,104) according to manufacturer's instructions. cDNA was generated from 500 ng RNA using Superscript III Reverse Transcriptase (Thermofisher Scientific, 18,080,085). Expression of the CLEAR genes CTSD, HEXA, LAMP1, CLCN7, ATP6V0A1, SQSTM1, UVRAG and GABARAP were assessed using Fast SYBR Green Master Mix standard protocol (Thermofisher Scientific, 4,309,155), on a StepOnePlusTM Real-Time PCR System (Applied biosystems, Waltham, MA, USA). Primer sequences are shown in Table S7A and were designed in Primer3 or by OriGene Technologies and validated in house for efficiency and specificity.

PRKD3 = target: T1, PRKD3 (Homo sapiens, UniProt O94806); assay: KiNativ in-cell kinase binding, PRKD3; parameters: endogenous in cells; host or cells: SH-SY5Y; details: for inhibition at 2 µM: SH-SY5Y cells
T1 sequence (O94806 1-890): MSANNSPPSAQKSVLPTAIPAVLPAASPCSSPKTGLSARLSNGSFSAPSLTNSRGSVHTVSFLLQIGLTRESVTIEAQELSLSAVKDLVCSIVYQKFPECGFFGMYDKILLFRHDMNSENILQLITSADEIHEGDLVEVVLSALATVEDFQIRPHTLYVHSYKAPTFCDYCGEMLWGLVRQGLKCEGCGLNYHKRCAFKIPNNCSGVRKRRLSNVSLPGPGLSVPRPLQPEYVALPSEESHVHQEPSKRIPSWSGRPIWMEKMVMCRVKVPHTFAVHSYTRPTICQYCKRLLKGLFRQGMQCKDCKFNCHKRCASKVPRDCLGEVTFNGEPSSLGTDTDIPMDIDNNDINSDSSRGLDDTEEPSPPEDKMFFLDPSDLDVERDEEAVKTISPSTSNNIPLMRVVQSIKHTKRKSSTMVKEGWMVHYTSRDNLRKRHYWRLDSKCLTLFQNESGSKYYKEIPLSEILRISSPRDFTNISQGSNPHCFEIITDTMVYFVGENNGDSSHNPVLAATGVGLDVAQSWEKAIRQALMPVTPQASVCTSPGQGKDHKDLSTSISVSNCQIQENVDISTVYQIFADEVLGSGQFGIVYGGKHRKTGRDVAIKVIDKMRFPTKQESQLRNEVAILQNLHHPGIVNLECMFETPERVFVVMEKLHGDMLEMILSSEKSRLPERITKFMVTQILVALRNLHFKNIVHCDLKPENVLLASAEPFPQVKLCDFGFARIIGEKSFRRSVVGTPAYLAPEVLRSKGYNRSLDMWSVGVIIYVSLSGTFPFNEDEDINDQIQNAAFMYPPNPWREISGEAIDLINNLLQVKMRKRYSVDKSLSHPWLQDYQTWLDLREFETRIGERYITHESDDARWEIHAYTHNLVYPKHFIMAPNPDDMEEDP
Description: (§1) As KINOMEscan is an in vitro assay, and as different cell types have variable kinase expression profiles we sought to determine the kinase binding profile in our SH-SY5Y TFEB-relocalization cell model. […] Bound kinases were pulled down and analyzed by mass spectrometry to determine the in situ kinase binding profile for each compound.

TLK2 = target: T2, TLK2 (Homo sapiens, UniProt Q86UE8); assay: KiNativ in-cell kinase binding, TLK2; details: SH-SY5Y cells
T2 construct: endogenous in cells; host or cells: SH-SY5Y
T2 sequence (Q86UE8 whole entry): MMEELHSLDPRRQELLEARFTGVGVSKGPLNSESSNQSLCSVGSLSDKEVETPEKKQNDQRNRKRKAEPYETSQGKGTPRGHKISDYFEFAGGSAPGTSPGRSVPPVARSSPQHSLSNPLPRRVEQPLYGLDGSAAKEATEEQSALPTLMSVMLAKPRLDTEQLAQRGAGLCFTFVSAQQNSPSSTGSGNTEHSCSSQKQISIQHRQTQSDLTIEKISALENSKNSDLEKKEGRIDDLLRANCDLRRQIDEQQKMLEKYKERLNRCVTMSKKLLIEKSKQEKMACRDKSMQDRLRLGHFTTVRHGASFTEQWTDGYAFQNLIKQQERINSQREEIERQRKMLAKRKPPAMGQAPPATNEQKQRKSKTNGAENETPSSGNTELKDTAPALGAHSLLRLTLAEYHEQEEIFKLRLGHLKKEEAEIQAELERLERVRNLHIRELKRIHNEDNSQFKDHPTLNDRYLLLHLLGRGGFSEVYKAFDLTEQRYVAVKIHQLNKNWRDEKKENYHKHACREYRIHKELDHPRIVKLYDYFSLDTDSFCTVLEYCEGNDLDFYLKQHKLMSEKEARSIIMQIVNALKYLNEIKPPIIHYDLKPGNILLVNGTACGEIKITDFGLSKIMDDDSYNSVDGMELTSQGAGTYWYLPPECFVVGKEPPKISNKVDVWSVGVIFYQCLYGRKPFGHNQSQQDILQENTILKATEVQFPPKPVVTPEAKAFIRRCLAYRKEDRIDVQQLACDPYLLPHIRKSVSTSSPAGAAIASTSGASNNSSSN
Description: as §1

[1] = target: T3, kinases (KINOMEscan panel) (Homo sapiens, UniProt Q9HBY8); parameters: method as in original PKIS2 published data; details: Published KINOMEscan; ref original PKIS2 published data; cited from earlier work
T3 sequence (Q9HBY8 1-367): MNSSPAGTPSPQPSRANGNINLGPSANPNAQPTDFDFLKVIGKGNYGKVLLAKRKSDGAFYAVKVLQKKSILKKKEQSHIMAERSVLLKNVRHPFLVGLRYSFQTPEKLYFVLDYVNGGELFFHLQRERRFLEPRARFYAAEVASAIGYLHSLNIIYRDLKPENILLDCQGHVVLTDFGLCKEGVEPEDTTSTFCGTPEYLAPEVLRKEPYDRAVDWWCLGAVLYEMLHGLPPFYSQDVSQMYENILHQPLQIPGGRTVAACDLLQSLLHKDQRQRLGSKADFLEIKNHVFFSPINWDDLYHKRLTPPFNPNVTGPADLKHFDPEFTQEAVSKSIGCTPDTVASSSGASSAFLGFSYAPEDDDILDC

[2] = target: kinases (KINOMEscan panel) (Homo sapiens, UniProt O96017); parameters: method as in original PKIS2 published data; details: kinase CHEK2; Published KINOMEscan; ref original PKIS2 published data; cited from earlier work
Sequence of kinases (KINOMEscan panel) (Homo sapiens, UniProt O96017) (O96017 whole entry): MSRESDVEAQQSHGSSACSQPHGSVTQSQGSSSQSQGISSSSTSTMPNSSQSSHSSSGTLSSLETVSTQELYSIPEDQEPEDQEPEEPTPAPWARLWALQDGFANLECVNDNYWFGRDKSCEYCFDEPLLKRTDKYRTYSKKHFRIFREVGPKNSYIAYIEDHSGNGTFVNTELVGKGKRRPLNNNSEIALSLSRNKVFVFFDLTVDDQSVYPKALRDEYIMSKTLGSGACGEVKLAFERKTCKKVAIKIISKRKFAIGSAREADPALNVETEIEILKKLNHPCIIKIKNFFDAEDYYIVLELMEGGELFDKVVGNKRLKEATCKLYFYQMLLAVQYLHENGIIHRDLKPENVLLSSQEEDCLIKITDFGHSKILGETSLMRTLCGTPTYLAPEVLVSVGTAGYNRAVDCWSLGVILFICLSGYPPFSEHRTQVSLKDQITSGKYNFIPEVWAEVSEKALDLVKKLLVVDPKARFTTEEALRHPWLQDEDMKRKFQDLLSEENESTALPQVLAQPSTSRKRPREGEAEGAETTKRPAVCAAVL

[3] = target: kinases (KINOMEscan panel) (Homo sapiens, UniProt P51451); parameters: method as in original PKIS2 published data; details: kinase BLK; Published KINOMEscan; ref original PKIS2 published data; cited from earlier work
Sequence of kinases (KINOMEscan panel) (Homo sapiens, UniProt P51451) (P51451 whole entry): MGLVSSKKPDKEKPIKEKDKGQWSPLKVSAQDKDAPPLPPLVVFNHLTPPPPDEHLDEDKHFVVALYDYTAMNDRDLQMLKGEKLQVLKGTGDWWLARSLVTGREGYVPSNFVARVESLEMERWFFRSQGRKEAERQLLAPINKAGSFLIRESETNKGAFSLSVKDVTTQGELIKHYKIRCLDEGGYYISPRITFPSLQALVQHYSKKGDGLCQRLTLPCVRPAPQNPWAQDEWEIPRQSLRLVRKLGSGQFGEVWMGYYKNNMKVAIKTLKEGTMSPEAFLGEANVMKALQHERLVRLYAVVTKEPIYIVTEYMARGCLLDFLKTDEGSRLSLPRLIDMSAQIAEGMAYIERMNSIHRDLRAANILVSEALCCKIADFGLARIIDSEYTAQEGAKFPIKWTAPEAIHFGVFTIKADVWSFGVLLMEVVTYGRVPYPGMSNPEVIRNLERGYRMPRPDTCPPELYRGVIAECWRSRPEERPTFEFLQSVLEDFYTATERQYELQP

[4] = target: kinases (KINOMEscan panel) (Homo sapiens, UniProt P14616); parameters: method as in original PKIS2 published data; details: INSRR; Published KINOMEscan; ref original PKIS2 published data; cited from earlier work
Sequence of kinases (KINOMEscan panel) (Homo sapiens, UniProt P14616) (P14616 27-1297): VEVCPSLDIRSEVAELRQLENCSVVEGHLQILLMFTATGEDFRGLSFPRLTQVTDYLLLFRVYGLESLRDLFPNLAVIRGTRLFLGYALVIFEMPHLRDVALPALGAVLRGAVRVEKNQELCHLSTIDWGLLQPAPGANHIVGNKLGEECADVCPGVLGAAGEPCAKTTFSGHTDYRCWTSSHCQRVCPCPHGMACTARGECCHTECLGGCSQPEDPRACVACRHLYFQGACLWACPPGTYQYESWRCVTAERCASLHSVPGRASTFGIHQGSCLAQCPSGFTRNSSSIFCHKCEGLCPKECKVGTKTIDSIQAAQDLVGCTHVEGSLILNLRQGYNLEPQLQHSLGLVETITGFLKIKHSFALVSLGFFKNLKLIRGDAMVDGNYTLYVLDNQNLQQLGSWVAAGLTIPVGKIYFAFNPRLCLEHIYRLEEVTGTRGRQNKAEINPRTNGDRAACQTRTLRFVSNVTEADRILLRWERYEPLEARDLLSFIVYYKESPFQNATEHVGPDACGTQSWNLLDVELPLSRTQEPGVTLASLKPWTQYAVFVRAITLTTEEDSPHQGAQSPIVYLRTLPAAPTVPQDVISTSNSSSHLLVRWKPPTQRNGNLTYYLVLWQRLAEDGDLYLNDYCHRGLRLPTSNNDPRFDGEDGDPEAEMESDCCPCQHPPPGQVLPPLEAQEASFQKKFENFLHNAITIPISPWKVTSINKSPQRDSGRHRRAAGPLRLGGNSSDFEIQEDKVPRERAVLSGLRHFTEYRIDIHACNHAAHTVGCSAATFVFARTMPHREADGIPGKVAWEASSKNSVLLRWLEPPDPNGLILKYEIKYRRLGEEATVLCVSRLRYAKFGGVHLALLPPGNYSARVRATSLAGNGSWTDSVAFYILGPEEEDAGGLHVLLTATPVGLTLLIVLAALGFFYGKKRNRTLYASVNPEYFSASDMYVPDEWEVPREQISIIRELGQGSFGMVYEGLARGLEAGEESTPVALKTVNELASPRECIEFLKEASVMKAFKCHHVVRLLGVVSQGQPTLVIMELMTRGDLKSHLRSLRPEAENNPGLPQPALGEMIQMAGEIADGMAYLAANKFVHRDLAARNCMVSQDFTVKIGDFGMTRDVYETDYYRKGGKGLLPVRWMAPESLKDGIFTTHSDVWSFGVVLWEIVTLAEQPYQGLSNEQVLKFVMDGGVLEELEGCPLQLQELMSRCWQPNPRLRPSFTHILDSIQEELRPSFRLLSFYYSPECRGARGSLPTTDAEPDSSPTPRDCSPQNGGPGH

Sequence of MINK1/MINK (Q8N4C8 whole entry): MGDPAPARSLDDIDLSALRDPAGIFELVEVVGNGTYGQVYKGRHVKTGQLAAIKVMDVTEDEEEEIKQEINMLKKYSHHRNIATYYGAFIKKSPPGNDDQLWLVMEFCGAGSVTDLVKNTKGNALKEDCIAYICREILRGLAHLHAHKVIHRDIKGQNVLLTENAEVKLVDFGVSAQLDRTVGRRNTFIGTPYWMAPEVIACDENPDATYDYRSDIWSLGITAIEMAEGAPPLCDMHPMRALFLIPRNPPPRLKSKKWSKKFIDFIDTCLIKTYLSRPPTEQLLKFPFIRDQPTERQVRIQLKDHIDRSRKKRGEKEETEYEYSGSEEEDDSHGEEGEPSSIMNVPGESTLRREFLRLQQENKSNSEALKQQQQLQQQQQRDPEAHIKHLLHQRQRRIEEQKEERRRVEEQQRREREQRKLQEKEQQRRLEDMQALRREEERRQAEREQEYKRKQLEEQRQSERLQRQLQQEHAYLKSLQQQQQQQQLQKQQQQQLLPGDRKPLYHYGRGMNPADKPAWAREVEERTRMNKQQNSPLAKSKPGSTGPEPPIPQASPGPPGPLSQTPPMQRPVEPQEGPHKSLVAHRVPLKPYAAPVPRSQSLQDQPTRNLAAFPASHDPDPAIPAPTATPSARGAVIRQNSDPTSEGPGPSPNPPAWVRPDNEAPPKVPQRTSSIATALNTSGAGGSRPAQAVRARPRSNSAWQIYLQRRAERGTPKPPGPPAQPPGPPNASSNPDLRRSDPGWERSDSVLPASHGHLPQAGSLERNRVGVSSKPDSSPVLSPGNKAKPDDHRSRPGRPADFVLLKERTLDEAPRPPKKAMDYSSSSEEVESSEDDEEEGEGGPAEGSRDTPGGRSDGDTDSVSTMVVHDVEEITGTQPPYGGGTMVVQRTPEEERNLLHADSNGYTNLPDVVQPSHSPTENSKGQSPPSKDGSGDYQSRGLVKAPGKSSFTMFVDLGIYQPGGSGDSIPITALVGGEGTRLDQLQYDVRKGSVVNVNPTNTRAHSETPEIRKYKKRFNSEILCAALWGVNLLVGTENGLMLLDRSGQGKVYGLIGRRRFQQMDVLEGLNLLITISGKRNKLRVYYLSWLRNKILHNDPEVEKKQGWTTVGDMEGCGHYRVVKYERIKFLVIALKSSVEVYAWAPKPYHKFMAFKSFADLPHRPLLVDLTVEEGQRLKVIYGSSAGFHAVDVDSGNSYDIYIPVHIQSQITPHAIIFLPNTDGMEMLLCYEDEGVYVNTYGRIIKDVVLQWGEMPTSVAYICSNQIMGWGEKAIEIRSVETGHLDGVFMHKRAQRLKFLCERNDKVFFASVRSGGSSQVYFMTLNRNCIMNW
Sequence of MAPK10/JNK3 (P53779 whole entry): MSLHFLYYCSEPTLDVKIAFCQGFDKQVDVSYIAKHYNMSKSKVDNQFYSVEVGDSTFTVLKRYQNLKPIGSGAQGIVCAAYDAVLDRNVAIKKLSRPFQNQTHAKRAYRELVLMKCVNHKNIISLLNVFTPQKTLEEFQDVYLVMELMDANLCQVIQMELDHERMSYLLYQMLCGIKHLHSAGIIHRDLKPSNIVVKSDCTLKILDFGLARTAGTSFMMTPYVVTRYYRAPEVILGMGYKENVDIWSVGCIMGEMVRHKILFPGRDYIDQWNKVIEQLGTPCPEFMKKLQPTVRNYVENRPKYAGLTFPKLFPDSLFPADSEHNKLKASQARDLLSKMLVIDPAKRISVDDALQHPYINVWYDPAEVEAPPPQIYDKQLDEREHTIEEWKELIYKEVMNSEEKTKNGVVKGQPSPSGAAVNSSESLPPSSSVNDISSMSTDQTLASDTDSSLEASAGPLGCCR

Cc1cccc(-c2nc(N(C)c3ccc4ncsc4c3)c3ccccc3n2)n1 [NK-161]
KINOMEscan MINK1/MINK (MINK1/MINK): 22
KINOMEscan MAPK10/JNK3 (MAPK10/JNK3): 16
KINOMEscan STK10/LOK (STK10/LOK): 19

Cc1cccc(-c2nc(Nc3ccc4ncsc4c3)c3ccccc3n2)n1 [NK140]
CLEAR gene expression (in words) (CLEAR genes): upregulation of a number of CLEAR genes
inhibition at 2 µM (PRKD3; Labeling Site Lys1, DVAIKVIDK): 71.5%
inhibition at 2 µM (PRKD3; Labeling Site Lys2, NIVHCDLKPENVLLASAEPFPQVK): 78.5%
KiNativ binding of PRKD3 (in words) (PRKD3; SH-SY5Y cells treated 2 h): bound
inhibition at 2 µM (TLK2; Labeling Site Lys1, YVAVKIHQLNK): 52.7%
inhibition at 2 µM (TLK2; Labeling Site Lys2, YLNEIKPPIIHYDLKPGNILLVNGTACGEIK): 50%

Cc1cccc(-c2nc(Nc3ccncc3)c3ccccc3n2)n1 [NK215]
KINOMEscan SGK2 [1]: 0
KINOMEscan CHEK2 [2]: 0
KINOMEscan BLK [3]: 1
KINOMEscan INSRR [4]: 0
